From ChEMBL document CHEMBL5029168, “Discovery of novel ID2 antagonists from pharmacophore-based virtual screening as potential therapeutics for glioma” (Bioorg Med Chem, 2021)

Assays:
[1] = test system: GL261; assay: Cytotoxicity against mouse GL261 cells assessed as reduction in cell viability incubated for 24 hrs by CCK8 assay; format: functional, cell-based; conditions: GL261, 24 h
[2] = test system: Hs 683; assay: Cytotoxicity against human Hs 683 cells assessed as reduction in cell viability incubated for 24 hrs by CCK8 assay; format: functional, cell-based; conditions: Hs 683, 24 h
[3] = test system: U-87 MG; assay: Cytotoxicity against human U87 cells assessed as reduction in cell viability incubated for 24 hrs by CCK8 assay; format: functional, cell-based, U-87MG ATCC

With `O=C(Cc1cccc2ccccc12)NNC(=O)Nc1cccc(Cl)c1` the IC50 [1] was > 100 µM, the IC50 [2] was > 100 µM and the IC50 [3] was > 100 µM.

In the case of `COc1cccc2c1OC(c1ccc(F)cc1)N1N=C(c3ccccc3)CC21` (centres undefined), the IC50 [1] is reported as > 100 µM, the IC50 [2] is reported as > 100 µM and the IC50 [3] is reported as > 100 µM.

In the case of `COc1ccc(N2C(=O)C[C@H](C(=O)NC3CCCCC3)[C@H]2c2ccc(F)cc2)cc1`, the IC50 [1] is reported as 90.2 µM, the IC50 [2] is reported as 84.5 µM and the IC50 [3] is reported as 77.9 µM.

With `O=C(C1=C(O)C(=O)N(CCc2c[nH]c3ccccc23)[C@@H]1c1cccc(O)c1)c1ccc(Cl)cc1` the IC50 [1] was 57.3 µM, the IC50 [2] was 60.8 µM and the IC50 [3] was 54.3 µM.

`COc1ccc(Cn2c(SCC(=O)n3c4c(c5ccccc53)CCCC4)nc3ccccc32)cc1` showed an IC50 [1] of 90.4 µM, an IC50 [2] of 91.4 µM and an IC50 [3] of 88.5 µM.

`O=C(NCCc1ccccc1)c1ccc(N2C[C@@H]3C[C@H](C2)c2cccc(=O)n2C3)c(NS(=O)(=O)c2cccc(Cl)c2)c1` was tested, and the IC50 [1] was 48.1 µM, the IC50 [2] was 55.3 µM and the IC50 [3] was 56.2 µM.

With `Cc1ccc([C@H](O)CNC(=O)c2cccc(C)c2C)cc1` the IC50 [1] was 74.2 µM, the IC50 [2] was 70.3 µM and the IC50 [3] was 67.3 µM.

`COc1ccccc1[C@H](CNC(=O)CCc1c[nH]c2ccccc12)N1CCCC1` was tested, and the IC50 [1] was 94.6 µM, the IC50 [2] was > 100 µM and the IC50 [3] was > 100 µM.
